Experimental data: patent US20190142840A1, “USE OF SIGMA RECEPTOR LIGANDS IN CANCER” (priority 2016, published 2019)
Where two headings read alike, the source gives them in different places.

Legend:
[1] = test system: patients treated for colorectal cancer; test: Phase 2 placebo-controlled clinical trial of Example 1 with oxaliplatin (FOLFOX4/mFOLFOX6); assay type: in vivo, human
Method: Thus, the clinical study titled “A proof-concept phase 2, randomized, placebo-controlled, double blind, multicenter clinical trial in two parallel groups to evaluate the efficacy of Example 1 for reducing the incidence and severity of oxaliplatin-induced peripheral neuropathy in patients treated for colorectal cancer” was performed.
The study period was 24 weeks of chemotherapy (one chemo cycle every 2 weeks=12 chemo cycles) plus 6 weeks (follow-up) and having as relevant safety objective to explore the incidence of adverse events by severity, of serious adverse effects, of adverse events leading to Example 1 discontinuation and of adverse events related to Example 1.
Patients received either: • oral daily Example 1, 400 mg/day, during the first 5 days of every chemotherapy cycle, starting the day before the cycle, up to a maximum of 12 cycles (Arm 1), • or oral daily placebo during the first 5 days of every chemotherapy cycle, starting the day before the cycle, up to a maximum of 12 cycles (Arm 2).
Patients were randomized to one of the two above mentioned Arms.
It was expected that chemotherapy cycles were repeated every 14 days for a maximum of 6 months (12 cycles) in the absence of disease progression or unacceptable toxicity.

[2] = test system: human lung carcinoma A549 cell line; test: Proliferation assay (MTT or SRB), A549 cell line; assay type: cell-based; conditions: read-out: IC50 (concentration of drug that inhibited 50% of cell proliferation)
Method: The cells were cultured in Dulbecco's modified Eagle's medium (DMEM) (Sigma, St. Louis, Mo., USA), supplemented with 10% heat-inactivated fetal bovine serum (FBS) (Lonza, Walkersville, Md., USA) and 1% of antibiotics mixture of penicillin (10,000 U/mL) and streptomycin (10 mg/mL) in an humidified 5% CO2 incubator at 37° C. of temperature. Cultured cells were detached with a trypsin-ethylenediamine tetraacetic acid (EDTA) solution (0.25%) and seeded into 24-well plates at a density of 6-15×10^3 cells per well, depending on the cell line.
After incubation for 24 hours under culture conditions, the cells were treated with either paclitaxel (0.1-50 nM) or Example 1 (5-100 μM). […] The percentage of viability was calculated by utilizing cells without any treatment as control.
After an incubation time of 96 hours with drugs, the cytotoxicity of the treatments toward the cell lines was evaluated in triplícate by the 3-(4,5-dimethylthiazol-2-yl)-2,5-diphenyl tetrazolium bromide (MTT) proliferation assay, as previously described (Clares et al., 2013), or with a sulforhodamine B (SRB) protocol, as previously described (Melguizo et al., 2015). […] The optical density (OD) of converted dye, which is proportional to the number of viable cells, was measured at 570 nm using a Titertek multiscan colorimeter (Flow Laboratories, Irvine, USA). […]

[3] = test system: human breast adenocarcinoma MCF7 European cell line; test: Proliferation assay (MTT or SRB), MCF7 European cell line; assay type: cell-based; conditions: for cytotoxic effect of association with paclitaxel: 10 μM sigma-1 receptor antagonist + 10 nM paclitaxel; for IC50: Homo sapiens, read-out: IC50 (concentration of drug that inhibited 50% of cell proliferation)
Method: (§1) The human breast adenocarcinoma MCF7 European cell line, the human lung carcinoma A549 cell line and the B16-F10 murine melanoma cell line were obtained from the University of Granada Scientific Instrumentation Centre (Spain) and the American Type Culture Collection (ATCC). The cells were cultured in Dulbecco's modified Eagle's medium (DMEM) (Sigma, St. Louis, Mo., USA), supplemented with 10% heat-inactivated fetal bovine serum (FBS) (Lonza, Walkersville, Md., USA) and 1% of antibiotics mixture of penicillin (10,000 U/mL) and streptomycin (10 mg/mL) in an humidified 5% CO2 incubator at 37° C. of temperature. […] The percentage of viability was calculated by utilizing cells without any treatment as control. […] In the MTT protocol, 20 μL of MTT solution in cell culture medium (5 mg/mL) was added to each well. […] The optical density (OD) of converted dye, which is proportional to the number of viable cells, was measured at 570 nm using a Titertek multiscan colorimeter (Flow Laboratories, Irvine, USA). The percentage of surviving cells was calculated as the OD ratio of treated cells to control (untreated) cells (×100). In the SRB protocol, the cells were washed three times with PBS, and 300 μL of 10% trichloroacetic acid was used to fix the cells (20 minutes at 4° C.). Then, the cells were washed three times with distilled water and left to dry before 300 μL of SRB was added. Incubation under mechanical stirring was continued for 20 minutes, and the excess SRB was removed by the addition of a 1% acetic acid solution. Then, the cells were left to dry. […] Sigma-Aldrich) was used for dye resuspension. The optical density (OD) of SRB was measured at 492 nm (Titertek® Multiskan colorimeter; Flow Laboratories Ltd, Oldham, UK) and analyzed with Ascent software version 2.6 (ThermoLab systems, Helsinki, Finland). In all cases, the percentage of surviving cells was calculated as: [OD treated cells/OD control (untreated) cells)]×100. The IC50 values (concentration of drug that inhibited 50% of cell proliferation) were estimated from the inhibition curves.

[4] = test system: B16-F10 murine melanoma cell line; test: Proliferation assay (MTT or SRB), B16-F10 cell line; assay type: cell-based; conditions: for cytotoxic effect of association with paclitaxel: 10 μM sigma-1 receptor antagonist + 10 nM paclitaxel; for IC50: Mus musculus, read-out: IC50 (concentration of drug that inhibited 50% of cell proliferation)
Method: as §1

sigma 1 (σ-1) site = sigma 1 (σ-1) site (Homo sapiens, UniProt Q99720); conditions: background statement; cited from earlier work
sigma 1 (σ-1) site, sequence (Q99720 whole entry): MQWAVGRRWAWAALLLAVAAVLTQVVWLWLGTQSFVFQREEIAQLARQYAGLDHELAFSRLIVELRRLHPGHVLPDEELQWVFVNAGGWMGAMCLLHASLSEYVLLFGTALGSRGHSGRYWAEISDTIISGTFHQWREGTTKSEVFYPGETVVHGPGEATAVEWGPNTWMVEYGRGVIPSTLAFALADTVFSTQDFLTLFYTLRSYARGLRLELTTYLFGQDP

sigma (σ-2) site = sigma (σ-2) site (Homo sapiens, UniProt Q5BJF2); conditions: background statement; cited from earlier work
sigma (σ-2) site, sequence (Q5BJF2 whole entry): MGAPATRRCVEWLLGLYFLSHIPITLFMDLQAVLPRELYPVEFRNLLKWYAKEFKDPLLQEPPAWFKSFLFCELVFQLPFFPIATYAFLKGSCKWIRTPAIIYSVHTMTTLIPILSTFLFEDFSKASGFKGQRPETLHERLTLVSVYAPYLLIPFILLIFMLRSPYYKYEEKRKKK

[5] = Example 1 400 mg/day oral with oxaliplatin, % apparently of the 27 discontinuations
[6] = Example 1 400 mg/day oral with oxaliplatin, % of n = 62 randomized
[7] = Example 1 400 mg/day oral with oxaliplatin, number of subjects
[8] = patients treated with Example 1 versus placebo

Cc1cc(OCCN2CCOCC2)nn1-c1ccc2ccccc2c1 [Example 1, 4-{2-[5-Methyl-1-(naphthalen-2-yl)-1H-pyrazol-3-yloxy]ethyl}morpholine]
Discontinuations: Physician decision (%) [1, 5]: 11.1%
Discontinuations: Progressive Disease (%) [1, 5]: 7.4%
Number of Completers (%) [1, 6]: 56.5%
Number of discontinuations (%) [1, 6]: 43.5%
Number of discontinuations ([1]; Example 1 400 mg/day oral with oxaliplatin, n = 62, number of subjects): 27
Discontinuations: Physician decision [1, 7]: 3
Discontinuations: Progressive Disease [1, 7]: 2
Number of Completers ([1]; Example 1 400 mg/day oral, first 5 days of each cycle, with oxaliplatin, n = 62 randomized, number of subjects): 35
more patients completed the 12 cycles of Oxaliplatin therapy ([1]; Example 1 added to chemotherapy versus placebo): 14.6%
Oxaliplatin dosing attained [1, 8]: higher Oxaliplatin dosing
patients discontinued because of cancer progression or physician decision [1, 8]: Less patients
tolerability of the chemotherapy [1, 8]: tolerated better the chemotherapy
IC50 ([2]; A549, 96 h): 100 µM
cytotoxic effect of association with paclitaxel ([3]; MCF7 European cell culture): better results than Haloperidol and BD-1063
cytotoxic effect of association with paclitaxel ([3]; MCF7 European cell culture, listed as Example-1): greater than summative
IC50 ([3]; MCF7, 96 h): 83 µM
cytotoxic effect of association with paclitaxel ([4]; B16-F10 cell culture): better results than Haloperidol and BD-1063
cytotoxic effect of association with paclitaxel ([4]; B16-F10 cell culture, listed as Example-1): greater than summative
IC50 ([4]; B16-F10, 96 h): 27 µM

CC(=O)O[C@H]1C(=O)[C@@]2(C)[C@H]([C@H](OC(=O)c3ccccc3)[C@]3(O)C[C@H](OC(=O)[C@H](O)[C@@H](NC(=O)c4ccccc4)c4ccccc4)C(C)=C1C3(C)C)[C@]1(OC(C)=O)CO[C@@H]1C[C@@H]2O [Paclitaxel, reference compound]
IC50 ([2]; A549, A-549 cells, 96 hours incubation): 0.003 µM
IC50 ([3]; MCF7 European cells, 96 hours incubation): 0.0085 µM
cytotoxicity ([3]; paclitaxel alone at 10 nM, MCF7 European cell culture): around 35%
IC50 ([4]; B16-F10 cells, 96 hours incubation): 0.015 µM
cytotoxicity ([4]; paclitaxel alone at 10 nM, B16-F10 cell culture): around 35%

O=C(CCCN1CCC(O)(c2ccc(Cl)cc2)CC1)c1ccc(F)cc1 [haloperidol, reference compound]
cytotoxic effect of association with paclitaxel ([3]; MCF7 European cell culture): greater than summative
cytotoxic effect of association with paclitaxel ([4]; B16-F10 cell culture): greater than summative

SKF 10047
affinity for the sigma 1 (σ-1) site (sigma 1 (σ-1) site): nanomolar affinity
affinity for the sigma (σ-2) site (sigma (σ-2) site): micromolar affinity
